Experimental findings from ChEMBL document CHEMBL5518204, “Discovery and Proof of Concept of Potent Dual Polθ/PARP Inhibitors for Efficient Treatment of Homologous Recombination-Deficient Tumors” (J Med Chem, 2024) are described below.

Active and inactive are the calls of the source.

In data set [1] the target is Poly [ADP-ribose] polymerase 1 (Homo sapiens, UniProt P09874). Description: Inhibition of human PARP1 incubated for 90 mins by colorimetric assay.
Data set [2] relates to MCF-10A. Description: Effect on DNA polymerase theta expression in human MCF-10A cells by immunoblotting analysis. It counts as functional, cell-based.
Data set [3] can be described thus: Metabolic stability in mouse liver microsome assessed as half life. It is filed as ADME. As to conditions: liver microsomes. On the technique in general: Microsomes from liver hold many membrane-bound enzymes, among them those of drug oxidation.
Data set [4] is described as follows: Metabolic stability in human liver microsome assessed as intrinsic clearance. It is filed as ADME. As to conditions: liver microsomes, read-out: CLH.
Data set [5] in a line: Metabolic stability in mouse liver microsome assessed as intrinsic clearance. It counts as ADME. As to conditions: liver microsomes, read-out: CLH.
Data set [6] in a line: Half life in Sprague-Dawley rat at 1 mg/kg, iv by LC-MS/MS analysis. It counts as ADME, organism-based. As to conditions: in vivo.
A short description of data set [7]: AUC (0 to t) in Sprague-Dawley rat at 1 mg/kg, iv by LC-MS/MS analysis. It counts as ADME, organism-based. As to conditions: in vivo.
Data set [8] deals with T1, Protein mono-ADP-ribosyltransferase PARP3 (Homo sapiens, UniProt Q9Y6F1).
T1 sequence (Q9Y6F1 whole entry): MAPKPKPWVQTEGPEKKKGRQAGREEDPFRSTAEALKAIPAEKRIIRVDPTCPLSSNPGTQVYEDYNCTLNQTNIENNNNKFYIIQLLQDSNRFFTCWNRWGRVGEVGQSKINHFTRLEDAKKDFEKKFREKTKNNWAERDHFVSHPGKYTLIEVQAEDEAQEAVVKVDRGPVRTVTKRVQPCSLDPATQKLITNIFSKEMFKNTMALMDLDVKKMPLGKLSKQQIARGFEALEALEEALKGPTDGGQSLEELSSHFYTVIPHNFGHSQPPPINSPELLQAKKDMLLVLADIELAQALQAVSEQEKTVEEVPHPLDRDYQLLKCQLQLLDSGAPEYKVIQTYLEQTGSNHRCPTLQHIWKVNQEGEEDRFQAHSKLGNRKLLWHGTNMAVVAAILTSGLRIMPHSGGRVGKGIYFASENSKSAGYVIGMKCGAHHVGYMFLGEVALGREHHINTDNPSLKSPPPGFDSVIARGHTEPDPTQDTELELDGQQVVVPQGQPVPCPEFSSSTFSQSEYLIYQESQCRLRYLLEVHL
Description: Inhibition of PARP3 (unknown origin).

Data set [9] deals with T2, Protein mono-ADP-ribosyltransferase PARP8 (Homo sapiens, UniProt Q8N3A8).
T2 sequence (Q8N3A8 whole entry): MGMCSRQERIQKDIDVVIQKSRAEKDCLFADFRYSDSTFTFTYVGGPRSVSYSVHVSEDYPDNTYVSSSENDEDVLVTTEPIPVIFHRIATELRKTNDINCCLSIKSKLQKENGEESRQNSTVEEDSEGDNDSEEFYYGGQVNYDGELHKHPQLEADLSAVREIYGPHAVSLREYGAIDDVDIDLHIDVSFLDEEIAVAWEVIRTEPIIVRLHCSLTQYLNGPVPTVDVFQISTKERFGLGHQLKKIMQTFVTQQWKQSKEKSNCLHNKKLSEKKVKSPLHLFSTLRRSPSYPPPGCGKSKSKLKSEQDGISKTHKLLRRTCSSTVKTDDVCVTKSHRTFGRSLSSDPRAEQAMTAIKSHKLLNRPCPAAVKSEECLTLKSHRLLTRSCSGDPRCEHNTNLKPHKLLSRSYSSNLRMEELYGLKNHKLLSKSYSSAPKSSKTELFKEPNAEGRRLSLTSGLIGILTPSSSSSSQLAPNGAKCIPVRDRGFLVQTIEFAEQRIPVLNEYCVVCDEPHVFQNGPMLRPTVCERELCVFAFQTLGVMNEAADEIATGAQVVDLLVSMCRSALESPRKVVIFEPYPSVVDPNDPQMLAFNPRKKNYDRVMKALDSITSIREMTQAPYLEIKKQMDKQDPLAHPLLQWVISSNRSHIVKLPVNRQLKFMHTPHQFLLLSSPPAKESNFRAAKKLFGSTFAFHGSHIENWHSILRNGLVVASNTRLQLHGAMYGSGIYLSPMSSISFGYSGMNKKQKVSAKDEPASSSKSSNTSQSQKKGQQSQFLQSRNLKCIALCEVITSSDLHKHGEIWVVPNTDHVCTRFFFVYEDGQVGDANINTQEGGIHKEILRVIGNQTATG
Put plainly: Inhibition of PARP8 (unknown origin).

Data set [10] concerns MDA-MB-436. Description: Inhibition of colony formation in human MDA-MB-436 cells at 2 uM incubated for 9 days by crystal violet staining based analysis. It counts as functional, cell-based. As to conditions: time 9.0 day.
Data set [11] concerns MDA-MB-231. Description: Induction of DNA damage in human MDA-MB-231 cells assessed as increase in tail intensity at 2 uM incubated for 3 days by florescence microscopic analysis. It counts as functional, cell-based. As to conditions: time 3.0 day.
A short description of data set [12]: Stability in rat plasma assessed as half life. It counts as ADME, cell-free.
Data set [13] is described as follows: Stability in mouse plasma assessed as half life. It is filed as ADME, cell-free.
The test system of data set [14] is MDA-MB-231. Put plainly: Antitumor activity against human MDA-MB-231 cells xenografted in BALB/c mouse assessed as tumor growth inhibition at 25 mg/kg, ip administered for 21 days. As to conditions: MDA-MB-231, 504 h, time 21 day, read-out: TGI. It is filed as functional. (In general: In xenograft studies the graft and the host belong to different species.)
Data set [15] relates to MDA-MB-231. Put plainly: Antitumor activity against human MDA-MB-231 cells xenografted in BALB/c mouse assessed as tumor growth inhibition at 20 mg/kg, ip administered for 21 days. It counts as functional. As to conditions: MDA-MB-231, 504 h, time 21 day, read-out: TGI.
A short description of data set [16]: Toxicity in BALB/c mouse xenografted with human MDA-MB-231 cells assessed as spleen damage at 20 to 40 mg/kg, ip administered for 21 days by H and E staining based analysis. It counts as organism-based. As to conditions: in vivo, 504 h, dose 20-40 mg/kg, time 21 day.
A short description of data set [17]: Toxicity in BALB/c mouse xenografted with human MDA-MB-231 cells assessed as lung damage at 20 to 40 mg/kg, ip administered for 21 days by H and E staining based analysis. It is filed as organism-based. As to conditions: in vivo, 504 h, dose 20-40 mg/kg, time 21 day.
A short description of data set [18]: Toxicity in BALB/c mouse xenografted with human MDA-MB-231 cells assessed as kidney damage at 20 to 40 mg/kg, ip administered for 21 days by H and E staining based analysis. It counts as organism-based. As to conditions: in vivo, 504 h, dose 20-40 mg/kg, time 21 day.
The subject of data set [19] is MDA-MB-231. Description: Antitumor activity against human MDA-MB-231 cells xenografted in ip dosed BALB/c mouse assessed as increase in gammaH2Ax expression administered for 21 days. It is filed as functional, organism-based. As to conditions: dose 20-40 mg/kg, time 21.0 day.
In data set [20] the test system is MDA-MB-231. Description: Antiproliferative activity against human MDA-MB-231 cells incubated for 4 days by MTT assay. It counts as functional, cell-based. As to conditions: time 4.0 day. (In general: Tetrazolium assays rely on reduction of a dye to a coloured formazan, in cell work by metabolically active cells.)

Poly [ADP-ribose] polymerase 1, sequence (P09874 whole entry): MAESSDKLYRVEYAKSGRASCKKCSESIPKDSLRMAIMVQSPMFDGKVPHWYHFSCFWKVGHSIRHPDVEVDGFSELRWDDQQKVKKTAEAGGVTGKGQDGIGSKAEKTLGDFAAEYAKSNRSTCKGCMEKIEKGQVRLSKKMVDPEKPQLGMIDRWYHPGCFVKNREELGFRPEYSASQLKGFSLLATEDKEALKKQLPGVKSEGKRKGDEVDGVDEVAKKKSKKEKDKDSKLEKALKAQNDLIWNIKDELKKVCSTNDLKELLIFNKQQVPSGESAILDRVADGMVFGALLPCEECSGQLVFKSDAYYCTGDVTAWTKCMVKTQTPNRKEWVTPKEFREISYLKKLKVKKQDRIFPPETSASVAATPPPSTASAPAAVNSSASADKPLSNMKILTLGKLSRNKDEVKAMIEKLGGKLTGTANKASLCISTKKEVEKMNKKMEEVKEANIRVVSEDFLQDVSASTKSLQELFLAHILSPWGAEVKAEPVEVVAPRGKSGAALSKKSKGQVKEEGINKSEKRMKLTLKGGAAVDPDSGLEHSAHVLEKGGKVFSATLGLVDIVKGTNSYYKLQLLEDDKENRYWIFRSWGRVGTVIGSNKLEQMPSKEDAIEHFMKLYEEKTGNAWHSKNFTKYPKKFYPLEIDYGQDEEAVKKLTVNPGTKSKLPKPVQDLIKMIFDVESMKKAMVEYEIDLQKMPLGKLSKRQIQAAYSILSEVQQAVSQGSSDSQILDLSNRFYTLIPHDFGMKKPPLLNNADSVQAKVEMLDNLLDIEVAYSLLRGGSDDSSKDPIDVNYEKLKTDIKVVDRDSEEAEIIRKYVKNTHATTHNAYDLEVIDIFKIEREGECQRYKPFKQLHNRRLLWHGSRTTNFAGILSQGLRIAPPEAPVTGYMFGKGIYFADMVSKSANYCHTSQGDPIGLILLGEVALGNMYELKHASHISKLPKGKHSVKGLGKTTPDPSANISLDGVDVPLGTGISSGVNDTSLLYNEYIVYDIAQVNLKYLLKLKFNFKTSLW

Consider `COc1ccc(Cl)cc1-c1cc(C)ncc1C(=O)Nc1nnc(OCC2CCN(C(=O)c3cc(Cc4n[nH]c(=O)c5ccccc45)ccc3F)CC2)s1`, for which the results for the IC50 in data set [1], in data set [8] and in [9] were 0.0054 µM, 0.0512 µM and 2.93 µM, respectively. Also, the outcome in data set [2], in [11] and in data set [20] was Active. For the same molecule, the half-life was 5.1 min in [3], 2 h in data set [6], 38.5 h in [12] and 38.5 h in data set [13]. The CLint scaled in [4] is 681 mL/min/kg; in [5], 1070 mL/min/kg. The AUC(0-t) in data set [7] worked out at 724 ng·h/mL. The inhibition result in data set [10] was “Active”. In addition, the inhibition in vivo at 25 mg/kg in data set [14] was determined as 54.4%. Moreover, in [15], the inhibition in vivo at 20 mg/kg amounted to 40.6%. Further, the Activity result was “Non-Toxic” in [16], “Non-Toxic” in data set [17], “Non-Toxic” in data set [18] and “Dose-Dependent Effect” in [19].

Broadly, the IC50 is the midpoint of a concentration-inhibition curve. Read a high IC50 as weaker potency. As a reminder, the half-life is the time needed for the level to fall by half in the phase considered. One may read the AUC(0-t) as the area under the concentration-time curve up to a stated or last time point. A higher AUC(0-t) goes with high exposure.
